“Also recorded” adds a separate entry of the source. Read-outs that look alike come from different tables or passages of the source. Where a SMILES comes first, the peptide text is derived from it.
What was measured:
COL1A1 promoter = COL1A1 promoter luciferase reporter inhibition assay in LX-2 cells; type: cell-based, human; conditions: for inhibition at 500 µM: read-out: Inhibitory Rate (%) of COL1A1 promotor; for relative fluorescence unit (RFU) of COL1A1 promotor: mean ± SD, n = 3, Control 124874.7 ± 10750.9;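 as to all read-outs here: Anti-fibrotic screen: luciferase reporter driven by the COL1A1 promoter in human hepatic stellate LX-2 cells, compounds applied in complete medium in 96-well plates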
Description: A total of 32 target compounds, the lead compound L-Asp, and the positive control epigallocatechin gallate (EGCG), known for its anti-hepatic fibrotic activity [29], were tested for inhibitory effects on COL1A1 promoter activity at a concentration of 0.5 mM.
The LX-2 cells at 90% confluent were transfected with the plasmid of pGL4.17-COL1A1 promoter using Lipofectamine 2000 (Invitrogen, 11668019, Carlsbad, CA, USA) with Opti-MEM serum-free medium (Gibco, 1930104). After culturing for 6 h, the cells were replaced with a complete medium and seeded in 96-well plates for 24 h. The compound to be tested was prepared using a complete medium and added to the 96-well plate. After 24 h, Bright-Glo Luciferase Assay System (Promega, Madison, WI, USA) was used to detect the activity of COL1A1 promoter and the assaying inhibition rate.

[1] = SRB cytotoxicity assay in LX-2 cells; type: cell-based, human; conditions: human, LX-2 cells, SRB assay
Description: (§1) Their cytotoxicity in LX-2 cells was assessed across various concentrations using the SRB assay, and the cytotoxic concentrations (CC50) were determined. The selectivity index (SI), calculated as the ratio of CC50 to the […] (IC50), was employed to evaluate the compounds’ effects on the COL1A1 promoter (Table 2).
(§2) The LX-2 cells were seeded in a 96-well plate when reaching 90% confluent. After 24 h, the compound to be tested was prepared using a complete medium and added to the 96-well plate for 24 h. After washing with PBS, the cells were fixed with 10% (wt/vol) trichloroacetic acid for 1 h, washed with deionized water and dried completely and, after staining with SRB for 20 min, the excess dye was washed with 1% acetic acid (vol/vol) three times. The dye bound to the protein was dissolved with 10 mM Tris base solution and OD values were determined at […].

LX-2 cells [2] = assay: SRB cytotoxicity assay in LX-2 cells; type: cell-based, human; conditions: CC50 in LX-2 cells / IC50 on COL1A1 promoter
Description: as §1, §2

[3] = test system: fibro-genic gene expression (fibronectin, COL1A1, TGFβ, α-SMA, CTGF, and TIMP1); assay: Western blot of fibro-genic proteins in TGFβ1-activated LX-2 cells; type: cell-based, human; conditions: TGFβ1 2 ng/mL, 24 h; for expression of fibro-genic genes (western blot): compound 100 μmol/L
Description: (§3) To evaluate the anti-fibrotic efficacy in vitro, we assessed the downregulatory effects of ten active compounds (3, 4c, 4d, 8a, 9, 28a, 32a, 41, 43 and 45) and L-Asp on fibro-genic gene expression (fibronectin, COL1A1, TGFβ, α-SMA, CTGF, and TIMP1) using western blot analysis. LX-2 cells were activated with TGFβ1 (2 ng/mL) and concurrently treated with each compound (100 μmol/L) for 24 h.
(§4) After the confluence of LX-2 cells reached 90%, the cells were treated with serum-free medium for 24 h. 2 ng/mL TGFβ1 or 1 μg/mL LPS were used in combination with compounds of different concentrations for 24 h. The samples of cells were lysed in RIPA buffer supplemented with protease inhibitor cocktail (Roche) and separated by SDS-PAGE. After the proteins were transferred to the PVDF membrane, 5% skim milk in TBS-T buffer was used to block them at room temperature for 2 h. Specific primary and secondary antibodies were used to detect the target protein. Finally, the blot was visualized using the Tanon 5200 system (Tanon, Shanghai, China) and the protein expression of GAPDH was used as the internal reference.

[4] = test system: IKKβ-NF-κB signaling pathway; assay: LPS-induced inflammation in LX-2 cells (western blot); type: cell-based, human; conditions: 24 h; for LPS-induced phosphorylation and baseline expression of IKKβ, NF-κB phosphorylation and expression: LPS 1 μg/mL, 50, 100, 200, and 500 μmol/L; for IL-6 expression / inhibition of inflammatory factors: LPS 1 μg/mL; for inhibition of inflammatory factors: 500 μM bands scanned
Description: Inflammation is crucial in the onset and progression of liver fibrosis, and fibrosis can further exacerbate tissue inflammation. […] To assess the anti-inflammatory effects of Compounds 41 and 8a, LX-2 cells were pre-incubated in serum-free medium for 24 h before LPS stimulation, followed by treatment with different concentrations of the compounds in serum-free medium containing 1 μg/mL LPS for another 24 h. Changes in inflammatory cytokine protein levels were analyzed using western blotting.
The IKKβ-NF-κB signaling pathway has been closely linked to the severity of liver fibrosis, with IKKβ serving as the primary catalytic subunit responsible for NF-κB activation. Therefore, this study investigated the NF-κB pathway by measuring IKKβ kinase activity. […] To evaluate the effects of the target compounds on LPS-induced inflammatory cytokines, four concentrations (50, 100, 200 and 500 μmol/L) were tested, and the results were analyzed by grayscale scanning of western blot bands using ImageJ software (version 1.53t), with normalization to GAPDH protein levels.
as §4

LX-2 cells [5] = assay: LPS-induced activation of LX-2 cells, fibro-genic proteins (western blot); type: cell-based, human; conditions: LPS 1 μg/mL, 50, 100, 200, and 500 μmol/L, 24 h
Description: Taking the results of Figure 3 and Figure 4 together, it seems that compounds 41 and 8a alleviate inflammation and inhibit liver fibrosis through the IKKβ-NF-κB signaling pathway, as indicated in Figure 5.
as §4

[6] = test system: mRNA expression of COL1A1, TGFβ1, and MMP2; assay: RT-qPCR of fibro-genic mRNA in TGFβ1-activated LX-2 cells; type: cell-based, human; conditions: TGFβ1 2 ng/mL, 24 h
Description: as §3
The LX-2 cells were seeded in a 6-well plate and cultured in a complete medium at 37 °C in a 5% CO2 environment until reaching 90% confluence. After culture without serum medium for 24 h, the cells were treated with 2 ng/mL TGFβ1 or 1 μg/mL LPS and the right concentration of compounds for 24 h. Total RNA was extracted using TRIzol reagent and purified by NucleoSpin RNA Clean-up Kit (Macherey-Nagel, Munich, Germany). Total RNA was reverse-transcribed into […] using a Transcriptor First Strand cDNA Synthesis Kit (Roche, Basel, Switzerland). The relative expression levels of the target gene were determined using a TaqMan probe with an ABI Q3 quantitative real-time PCR system, while GAPDH was utilized as an internal control for mRNA expression. The fold change of target mRNA expression was calculated using Equation 2^−∆∆Ct.

[7] = Homo sapiens, LX-2, LX-2 cells, read-out: IC50 to inhibit the activity of COL1A1 promoter by 50%
[8] = Homo sapiens, LX-2 cells, 0.5 mM, 24 h
[9] = 24 h, read-out: CC50, cytotoxic concentration required to inhibit the growth of LX-2 cells by 50%

SMILES: CC(C)(C)OC(=O)C[C@H](NC(=O)OCC1c2ccccc2-c2ccccc21)C(=O)NCCO [Compound 3, Tert-butyl (S)-3-((((9H-fluoren-9-yl)methoxy)carbonyl)amino)-4-((2-hydroxyethyl)amino)-4-oxobutanoate]
- IC50 (COL1A1 promoter; [7]): 327 ± 17.1 µM
- inhibition at 500 µM (COL1A1 promoter; [8]): 81.5 ± 5.62%
- relative fluorescence unit (RFU) of COL1A1 promotor (COL1A1 promoter; LX-2 cells): 23056.9 ± 7017.3 RFU
- CC50 at 24 h [1, 9]: 660 ± 24.6 µM
- SI, selectivity index (CC50/IC50) (LX-2 cells [2]): 2.01
- melting point: 93.2 to 95.6 °C

SMILES: C[C@H](N)C(=O)N[C@@H](CC(=O)O)C(=O)O [Compound 8a, L-alanyl-L-aspartic acid] (H-Ala-Asp-OH)
- inhibition at 500 µM (COL1A1 promoter; Homo sapiens, LX-2, 24 h): 49.3 ± 13.3%
- IC50 (COL1A1 promoter; Homo sapiens, LX-2, read-out: IC50 to inhibit the activity of COL1A1 promoter by 50%): 1050 ± 111 µM
- relative fluorescence unit (RFU) of COL1A1 promotor (COL1A1 promoter; LX-2 cells): 63265.3 ± 16582.4 RFU
- CC50 at 24 h [1, 9]: 13900 µM
- CC50 at 24 h ([1]; read-out: CC50 in LX-2 cells): 13000 µM
- SI, selectivity index (CC50/IC50) (LX-2 cells [2]): 13.16
- expression of fibro-genic genes (western blot) [3]: no significant inhibitory effect
- LPS-induced phosphorylation and baseline expression of IKKβ, NF-κB phosphorylation and expression [4]: dose-dependent reduction
- IL-6 expression [4]: significantly suppressed
- inhibition of inflammatory factors [4]: superior inhibitory effects
- protein expression of COL1A1, fibronectin, α-SMA, and CTGF (LX-2 cells [5]): significantly reducing

SMILES: CC[C@@H]1C2C[C@H](O)CC[C@]2(C)C2CC[C@@]3(C)C(CCC3[C@H](C)CCC(=O)N[C@@H](CC(=O)O)C(=O)O)C2[C@@H]1O (stereo partly drawn) [Compound 9, ((4R)-4-((3R,6R,7R,10S,13R)-6-ethyl-3,7-dihydroxy-10,13-dimethylhexadecahydro-1H-cyclopenta[a]phenanthren-17-yl)pentanoyl)-L-aspartic acid]
- IC50 (COL1A1 promoter; [7]): 270 ± 47.9 µM
- inhibition at 500 µM (COL1A1 promoter; [8]): 97.4 ± 3.53%
- relative fluorescence unit (RFU) of COL1A1 promotor (COL1A1 promoter; LX-2 cells): 3188.3 ±4407.2 RFU
- CC50 at 24 h [1, 9]: 351 ± 19.4 µM
- SI, selectivity index (CC50/IC50) (LX-2 cells [2]): 1.30
- melting point: 108.2 to 110.6 °C

SMILES: COC(=O)[C@H]1C[C@H](Oc2cc(Cl)nn3c(-c4ccc(OC)c(OC)c4)cnc23)CN1C(=O)OC(C)(C)C [Compound 41, 1-(tert-butyl)-2-methyl-(2R,4S)-4-((6-chloro-3-(3,4-dimethoxyphenyl)imidazo [1,2-b]pyridazin-8-yl)oxy)pyrrolidine-1,2-dicarboxylate]
- IC50 (COL1A1 promoter; [7]): 30 µM
- inhibition at 500 µM (COL1A1 promoter; [8]): 66.7 ± 1.96%
- relative fluorescence unit (RFU) of COL1A1 promotor (COL1A1 promoter; LX-2 cells): 41555.6 ± 2445.9 RFU
- IC50 (COL1A1 promoter; LX-2 cells, read-out: IC50 to inhibit the activity of COL1A1 promoter by 50%): 30.6 ± 0.3 µM
- CC50 at 24 h [1, 9]: 510 ± 51.5 µM
- SI, selectivity index (CC50/IC50) (LX-2 cells [2]): 16.68
- expression of fibro-genic genes (western blot) [3]: significantly suppressed
- protein levels of fibronectin, COL1A1, and α-SMA following TGFβ1 stimulation ([3]; different concentrations): notably inhibited; also recorded: reduced the protein levels of fibronectin, COL1A1, and α-SMA in a dose-dependent manner
- mRNA expression of COL1A1, TGFβ1, and MMP2 [6]: markedly decreased
- LPS-induced phosphorylation and baseline expression of IKKβ, NF-κB phosphorylation and expression [4]: dose-dependent reduction
- IL-6 expression [4]: significantly suppressed
- inhibition of inflammatory factors [4]: superior inhibitory effects
- protein expression of COL1A1, fibronectin, α-SMA, and CTGF (LX-2 cells [5]): significantly reducing; also recorded: potent inhibition

SMILES: COc1ccc(-c2cnc3c(O[C@@H]4CN[C@@H](C(=O)O)C4)cc(C)nn23)cc1OC [Compound 45, (2R,4S)-4-((3-(3,4-dimethoxyphenyl)-6-methylimidazo [1,2-b]pyridazin-8-yl)oxy)pyrrolidine-2-carboxylic acid]
- IC50 (COL1A1 promoter; [7]): 298 ± 51.7 µM
- inhibition at 500 µM (COL1A1 promoter; [8]): 69.6 ± 8.48%
- relative fluorescence unit (RFU) of COL1A1 promotor (COL1A1 promoter; LX-2 cells): 37918.9 ± 10579.6 RFU
- CC50 at 24 h [1, 9]: 632 ± 11.2 µM
- SI, selectivity index (CC50/IC50) (LX-2 cells [2]): 2.12

Reference: publication PMC11477965, “Synthesis and Anti-Liver Fibrosis Research of Aspartic Acid Derivatives” (Molecules, 2024)
